Measurements: PubChem BioAssay (NCI)
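Following 48 hours of exposure in 96-well plates, responses at five concentrations were used to interpolate endpoints linearly. GI50 marks 50% less growth. TGI is the concentration that stops growth completely.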 Where a SMILES comes first, the peptide text is derived from it. The star is where a group is joined. Fmoc = O=C(OCC1c2ccccc2-c2ccccc21)*; Boc = CC(C)(C)OC(=O)*

Tests used:
Assay in all cases: growth of human tumour cells (NCI), 48 h
[1] = tested on: ACHN renal
[2] = tested on: COLO 205 colon
[3] = tested on: HCT-116 colon
[4] = tested on: HCT-15 colon
[5] = tested on: KM12 colon
[6] = tested on: NCI-H23 lung
[7] = tested on: SK-MEL-28 melanoma
[8] = tested on: SK-OV-3 ovarian
[9] = tested on: SR leukemia
[10] = tested on: U251 CNS

Row | Compound | TGI [1] [µM] | TGI [2] [µM] | TGI [3] [µM] | TGI [4] [µM] | TGI [5] [µM] | TGI [6] [µM] | TGI [7] [µM] | TGI [8] [µM] | TGI [9] [µM] | TGI [10] [µM] | GI50 [1] [µM] | GI50 [2] [µM] | GI50 [3] [µM] | GI50 [4] [µM] | GI50 [5] [µM] | GI50 [6] [µM] | GI50 [7] [µM] | GI50 [8] [µM] | GI50 [9] [µM] | GI50 [10] [µM]
1 | Cc1cc(C)c2c(n1)S(=O)(=O)N(CCCN1CCN(c3cccc(C(F)(F)F)c3)CC1)c1c-2nn(C)c1C | > 100 | > 100 | > 100 | > 100 | > 100 | > 100 | > 100 | > 100 | 62 | > 100 | – | – | – | – | – | – | – | – | – | –
2 | CCOC(=O)C1OC(C2(C)OC3(OC4(C=CC3O)OC(C(C)C(=O)C(C)C(O)C(C)CC(C)c3c(Cl)cc(C)c(O)c3C(=O)O)C(C)CC4C)C(C)C2OC)CC1O (stereo not given) | 6.78 | 2.08 | 3.75 | > 20.2 | 6.41 | 5.77 | 1.02 | 3.26 | 4.53 | 4.24 | – | – | – | – | – | – | – | – | – | –
3 | CCOC(=O)C(Cl)(NC(=O)c1c(F)c(F)c(F)c(F)c1F)C(F)(F)F (stereo not given) | > 100 | > 100 | > 100 | > 100 | > 100 | > 100 | > 100 | > 100 | > 100 | > 100 | – | – | – | – | – | – | – | – | – | –
4 | O=C1/C(=C/c2ccc(Cl)cc2)N=C(c2ccccc2)N1CCc1cccs1 | > 100 | 39.9 | > 100 | > 100 | > 100 | > 100 | > 100 | > 100 | > 100 | > 100 | 28.8 | 16 | 6.65 | 19.3 | 22 | 20 | 62.8 | 55.9 | 24.2 | 22.4
5 | CC(C)(C)OC(=O)NCCCCC(NC(=O)OCC1c2ccccc2-c2ccccc21)C(=O)N1CCCC1C(=O)NCC(N)=O (stereo not drawn) (Fmoc-Lys(Boc)-Pro-Gly-NH2; configuration not given here) | 34.6 | 99.2 | > 100 | 30.1 | 38.3 | > 100 | > 100 | 26.5 | 49.5 | 33.1 | – | – | – | – | – | – | – | – | – | –
6 | NC1CC2NC3CCCCC3NC2CC1N (stereo not given) | > 100 | > 100 | > 100 | > 100 | > 100 | > 100 | > 100 | > 100 | > 100 | > 100 | – | – | – | – | – | – | – | – | – | –
7 | CC(C)C1=CCC2C(=C1)CCC1C(C)(C(=O)O)CCCC21C (stereo not given) (tested in a mixture with another compound) | > 100 | > 100 | > 100 | > 100 | > 100 | > 100 | > 100 | > 100 | > 100 | > 100 | – | – | – | – | – | – | – | – | – | –
8 | NCCCNC1(c2cc3ccccc3s2)CCCCC1 | 24.4 | 3.45 | 4.91 | 17.7 | 14.7 | 31.3 | 4.59 | 28.6 | 4.68 | 10 | – | – | – | – | – | – | – | – | – | –
9 | CC(=O)O[C@@H]1C2=C(C)C=C(O2)[C@H]2O[C@]2(C)C[C@H]2C=C(C(=O)O2)[C@H](OC(C)=O)CC1[C@@]1(C)CO1 (stereo not given in full) | 61.6 | 27.1 | 28.4 | 63.6 | > 100 | > 100 | 36 | > 100 | 47.5 | 40.1 | – | – | – | – | – | – | – | – | – | –
10 | Nc1nc(N)c2ncn(Cc3ccccc3CCl)c2n1 | > 100 | > 100 | > 100 | > 100 | > 100 | > 100 | > 100 | > 100 | > 100 | > 100 | – | – | – | – | – | – | – | – | – | –
11 | CC(=O)OCC1OC(SC2OC(COC(C)=O)C(OC(C)=O)C(OC(C)=O)C2OC(C)=O)C(OC(C)=O)C(OC(C)=O)C1OC(C)=O (stereo not given) | > 100 | > 100 | > 100 | > 100 | > 100 | > 100 | > 100 | > 100 | > 100 | > 100 | – | – | – | – | – | – | – | – | – | –
12 | CC(C)[Si](OC1=CCC[C@H]2NC(=O)[C@@H](Cc3ccccc3)[C@@]12C)(C(C)C)C(C)C | 5.25 | 6.35 | 14.1 | 15.6 | 14.4 | 18.9 | 13.1 | 18.9 | 7.19 | 11.6 | – | – | – | – | – | – | – | – | – | –
13 | CCCCN1C(=O)c2c(-c3sccc3N)sc(-c3sccc3N)c2C1=O | > 100 | > 46.7 | > 100 | > 100 | > 100 | > 100 | 36.7 | 35.8 | > 23.1 | 51.6 | – | – | – | – | – | – | – | – | – | –
14 | C#CC1(O)C(COP(=O)(O)OCC2OC(n3ccc(NCCCCCCCCCCCCCCCCCC)nc3=O)C(O)C2O)OC(n2ccc(N)nc2=O)C1O (stereo not given) | > 53.3 | > 32.9 | > 36 | 36.6 | 26.6 | 55.8 | 31.6 | > 59.4 | 11.7 | 53.5 | – | – | – | – | – | – | – | – | – | –
15 | Fc1ccc2nc3n(c2c1)C(c1c(Cl)cccc1Cl)SC3 (stereo not given) | > 100 | > 100 | > 100 | > 100 | > 100 | > 100 | > 100 | > 100 | > 100 | > 100 | – | – | – | – | – | – | – | – | – | –
16 | COc1ccc2oc(OC)c(CC=C(C)C)c(=O)c2c1C | > 100 | > 100 | > 100 | > 100 | > 100 | > 100 | > 100 | > 100 | > 100 | > 100 | – | – | – | – | – | – | – | – | – | –
17 | Cc1noc2nnn(-c3ccc(Cl)cc3)c(=O)c12 | 15.1 | 11.9 | 11.3 | 10.3 | 31.1 | 20.5 | 25.5 | 26.5 | 3.78 | 17.7 | – | – | – | – | – | – | – | – | – | –
18 | CC(=O)N(O)[C@@H]1CC[C@H](n2cnc3c(N)ncnc32)C1 | > 100 | > 100 | > 100 | > 100 | > 100 | > 100 | > 100 | > 100 | > 100 | > 100 | – | – | – | – | – | – | – | – | – | –
19 | CN1CCC(CN2c3ccccc3Sc3ccccc32)CC1 | 29.7 | 27.1 | 25.2 | 32.4 | 29.6 | 30 | 23.1 | 30.2 | 33.3 | 29.2 | – | – | – | – | – | – | – | – | – | –
20 | O=C/C=C/c1ccco1 | > 100 | > 100 | > 100 | > 100 | > 100 | > 100 | > 100 | > 100 | > 100 | > 100 | – | – | – | – | – | – | – | – | – | –
21 | O=C(CCCCCCC(=O)Nc1cccnc1)NO | > 92.2 | > 20.5 | > 100 | > 100 | > 44.6 | > 100 | > 80.3 | > 71.8 | > 100 | > 54.8 | – | – | – | – | – | – | – | – | – | –
22 | CCOC(=O)Cc1nc2sc(S(N)(=O)=O)nn2c1Br | 93.3 | > 100 | 96.5 | 77.5 | > 100 | 81.5 | 96.2 | > 100 | > 100 | 37.9 | – | – | – | – | – | – | – | – | – | –
23 | COC(=O)C1=C(O)C(C(=O)OC)[C@]2(O)[C@H](C(=O)OC)[C@H]1C[C@@H](c1c(Cl)cccc1Cl)[C@H]2C(=O)OC (stereo not given in full) | 4.86 | 4.37 | 3.42 | 4.49 | 8.6 | 5.44 | 7.55 | 14.2 | 4.87 | 2.99 | – | – | – | – | – | – | – | – | – | –
24 | Cc1cc(C)nc(SC(C)C(=O)N/N=C/c2ccc(OCc3ccccc3)cc2)n1 (stereo not given) | > 100 | 91.6 | > 100 | > 100 | > 100 | > 100 | > 100 | > 100 | 38.1 | > 100 | – | – | – | – | – | – | – | – | – | –
25 | CCC1CN2CCc3c([nH]c4ccccc34)C2C[C@@H]1CC(=O)N(C)C (stereo not given in full) | > 100 | > 100 | > 100 | > 100 | > 100 | > 100 | > 100 | > 100 | > 100 | > 100 | – | – | – | – | – | – | – | – | – | –
26 | Brc1ccc2c([C@H]3CN[C@@H](c4c[nH]c5cc(Br)ccc45)CN3)c[nH]c2c1 | 9.87 | 2.91 | 3.03 | 11.2 | 3.28 | 8.95 | 27.2 | 22.7 | 6.77 | 4.19 | – | – | – | – | – | – | – | – | – | –
27 | CCOC(=O)c1ccc(C(=O)/C(C(C)=O)=C2\CCCN2C)n1C | > 100 | > 100 | > 100 | > 100 | > 100 | > 100 | > 100 | > 100 | 98.9 | > 100 | – | – | – | – | – | – | – | – | – | –
28 | Cc1ccc(OC2CC(n3cnc4ncnc(Cl)c43)OC2Oc2ccc(C)cc2)cc1 (stereo not given) | 10.5 | 46.5 | > 100 | > 100 | 74.4 | 82.5 | > 100 | > 100 | > 100 | > 100 | – | – | – | – | – | – | – | – | – | –
29 | Cn1c(-c2ccccc2)cc2c3ccsc3c3ccsc3c21 | > 100 | > 100 | > 100 | > 100 | > 100 | > 100 | > 100 | > 100 | > 100 | > 100 | – | – | – | – | – | – | – | – | – | –
